In US10130096B2, “Method for protecting useful plants or plant propagation material” (SYNGENTA PARTICIPATIONS AG, priority 2011, dated 2018):

These compounds were tested on Botryotinia fuckeliana (Botrytis cinerea) (assay: Botryotinia fuckeliana liquid culture growth inhibition). Settings: photometric, 3-4 days after application, read-out: control on Botryotinia fuckeliana.
Type: cell-based
Protocol: Conidia of the fungus from cryogenic storage are directly mixed into nutrient broth (Vogels broth). After placing a (DMSO) solution of test compound into a microtiter plate (96-well format), the nutrient broth containing the fungal spores is added.

SMILES	inhibition of growth at 200 ppm
NCC(OB1OCc2cc(Cl)ccc21)c1ccccc1 (centres unmarked) [Compound 3, 2-(5-Chloro-3H-benzo[c][1,2]oxaborol-1-yloxy)-2-phenyl-ethylamine]	≥ 80%
OB1OCc2ccc(Cl)cc21 [Compound 6, 6-Chloro-3H-benzo[c][1,2]oxaborol-1-ol]	≥ 80%
OB1OCc2ccccc21 [Compound 11, 3H-Benzo[c][1,2]oxaborol-1-ol]	≥ 80%
OB1OCc2cc3ccccc3cc21 [Compound 15, 3H-2-Oxa-1-bora-cyclopenta[b]naphthalen-1-ol]	≥ 80%
OB1OCc2c1ccc1ccccc21 [Compound 16, 1H-2-Oxa-3-bora-cyclopenta[a]naphthalen-3-ol]	≥ 80%
N[C@H](COB1OCc2cc(Cl)ccc21)Cc1ccccc1 [Compound 20, (S)-1-Benzyl-2-(5-chloro-3H-benzo[c][1,2]oxaborol-1-yloxy)-ethylamine]	≥ 80%
CC(C)(N)COB1OCc2cc(Cl)ccc21 [Compound 21, 2-(5-Chloro-3H-benzo[c][1,2]oxaborol-1-yloxy)-1,1-dimethyl-ethylamine]	≥ 80%
Clc1ccc2c(c1)COB2Oc1cccc2cccnc12 [Compound 22, 8-(5-Chloro-3H-benzo[c][1,2]oxaborol-1-yloxy)-quinoline]	≥ 80%
N[C@@H](COB1OCc2cc(Cl)ccc21)c1ccccc1 [Compound 23, (R)-2-(5-Chloro-3H-benzo[c][1,2]oxaborol-1-yloxy)-1-phenyl-ethylamine]	≥ 80%
Clc1ccc2c(c1)COB2OC[C@@H]1CCCN1 [Compound 24, (S)-2-(5-Chloro-3H-benzo[c][1,2]oxaborol-1-yloxymethyl)-pyrrolidine]	≥ 80%

Each compound was assayed on Thanatephorus cucumeris (Rhizoctonia solani) (assay: Thanatephorus cucumeris liquid culture growth inhibition). Settings: photometric, 3-4 days after application, read-out: control on Thanatephorus cucumeris.
Type: cell-based
Protocol: Mycelia fragments of a newly grown liquid culture of the fungus are directly mixed into nutrient broth (PDB potato dextrose broth). After placing a (DMSO) solution of the test compounds into a microtiter plate (96-well format), the nutrient broth containing the fungal material is added. The test plates are incubated at 24° C. and the inhibition of growth is determined photometrically 3-4 days after application.

SMILES	inhibition of growth at 200 ppm
OB1OCc2ccc(Cl)cc21 [Compound 6, 6-Chloro-3H-benzo[c][1,2]oxaborol-1-ol]	≥ 80%
N[C@H](COB1OCc2cc(Cl)ccc21)Cc1ccccc1 [Compound 20, (S)-1-Benzyl-2-(5-chloro-3H-benzo[c][1,2]oxaborol-1-yloxy)-ethylamine]	≥ 80%
CC(C)(N)COB1OCc2cc(Cl)ccc21 [Compound 21, 2-(5-Chloro-3H-benzo[c][1,2]oxaborol-1-yloxy)-1,1-dimethyl-ethylamine]	≥ 80%
Clc1ccc2c(c1)COB2Oc1cccc2cccnc12 [Compound 22, 8-(5-Chloro-3H-benzo[c][1,2]oxaborol-1-yloxy)-quinoline]	≥ 80%
Clc1ccc2c(c1)COB2OC[C@@H]1CCCN1 [Compound 24, (S)-2-(5-Chloro-3H-benzo[c][1,2]oxaborol-1-yloxymethyl)-pyrrolidine]	≥ 80%

These compounds were tested on Mycosphaerella arachidis (Cercospora arachidicola) (assay: Mycosphaerella arachidis liquid culture growth inhibition). Settings: photometric, 4-5 days after application, read-out: control on Mycosphaerella arachidis.
Type: cell-based
Protocol: (§1) Conidia of the fungus from cryogenic storage are directly mixed into nutrient broth (PDB potato dextrose broth). After placing a (DMSO) solution of test compound into a microtiter plate (96-well format), the nutrient broth containing the fungal spores is added.

SMILES	inhibition of growth at 200 ppm
NCC(OB1OCc2cc(Cl)ccc21)c1ccccc1 (centres unmarked) [Compound 3, 2-(5-Chloro-3H-benzo[c][1,2]oxaborol-1-yloxy)-2-phenyl-ethylamine]	≥ 80%
OB1OCc2ccc(Cl)cc21 [Compound 6, 6-Chloro-3H-benzo[c][1,2]oxaborol-1-ol]	≥ 80%
OB1OCc2ccccc21 [Compound 11, 3H-Benzo[c][1,2]oxaborol-1-ol]	≥ 80%
OB1OCc2cc3ccccc3cc21 [Compound 15, 3H-2-Oxa-1-bora-cyclopenta[b]naphthalen-1-ol]	≥ 80%
OB1OCc2c1ccc1ccccc21 [Compound 16, 1H-2-Oxa-3-bora-cyclopenta[a]naphthalen-3-ol]	≥ 80%
N[C@H](COB1OCc2cc(Cl)ccc21)Cc1ccccc1 [Compound 20, (S)-1-Benzyl-2-(5-chloro-3H-benzo[c][1,2]oxaborol-1-yloxy)-ethylamine]	≥ 80%
CC(C)(N)COB1OCc2cc(Cl)ccc21 [Compound 21, 2-(5-Chloro-3H-benzo[c][1,2]oxaborol-1-yloxy)-1,1-dimethyl-ethylamine]	≥ 80%
Clc1ccc2c(c1)COB2Oc1cccc2cccnc12 [Compound 22, 8-(5-Chloro-3H-benzo[c][1,2]oxaborol-1-yloxy)-quinoline]	≥ 80%
N[C@@H](COB1OCc2cc(Cl)ccc21)c1ccccc1 [Compound 23, (R)-2-(5-Chloro-3H-benzo[c][1,2]oxaborol-1-yloxy)-1-phenyl-ethylamine]	≥ 80%
Clc1ccc2c(c1)COB2OC[C@@H]1CCCN1 [Compound 24, (S)-2-(5-Chloro-3H-benzo[c][1,2]oxaborol-1-yloxymethyl)-pyrrolidine]	≥ 80%

The compounds below were run on Monographella nivalis (Microdochium nivale) (assay: Monographella nivalis liquid culture growth inhibition). Settings: photometric, 4-5 days after application, read-out: control on Monographella nivalis.
Type: cell-based
Protocol: (§2) Conidia of the fungus from cryogenic storage are directly mixed into nutrient broth (PDB potato dextrose broth). After placing a (DMSO) solution of test compound into a microtiter plate (96-well format), the nutrient broth containing the fungal spores is added. The test plates are incubated at 24° C. and the inhibition of growth is determined photometrically 4-5 days after application.

SMILES	inhibition of growth at 200 ppm
NCC(OB1OCc2cc(Cl)ccc21)c1ccccc1 (centres unmarked) [Compound 3, 2-(5-Chloro-3H-benzo[c][1,2]oxaborol-1-yloxy)-2-phenyl-ethylamine]	≥ 80%
OB1OCc2ccc(Cl)cc21 [Compound 6, 6-Chloro-3H-benzo[c][1,2]oxaborol-1-ol]	≥ 80%
OB1OCc2cc3ccccc3cc21 [Compound 15, 3H-2-Oxa-1-bora-cyclopenta[b]naphthalen-1-ol]	≥ 80%
OB1OCc2c1ccc1ccccc21 [Compound 16, 1H-2-Oxa-3-bora-cyclopenta[a]naphthalen-3-ol]	≥ 80%
N[C@H](COB1OCc2cc(Cl)ccc21)Cc1ccccc1 [Compound 20, (S)-1-Benzyl-2-(5-chloro-3H-benzo[c][1,2]oxaborol-1-yloxy)-ethylamine]	≥ 80%
CC(C)(N)COB1OCc2cc(Cl)ccc21 [Compound 21, 2-(5-Chloro-3H-benzo[c][1,2]oxaborol-1-yloxy)-1,1-dimethyl-ethylamine]	≥ 80%
Clc1ccc2c(c1)COB2Oc1cccc2cccnc12 [Compound 22, 8-(5-Chloro-3H-benzo[c][1,2]oxaborol-1-yloxy)-quinoline]	≥ 80%
N[C@@H](COB1OCc2cc(Cl)ccc21)c1ccccc1 [Compound 23, (R)-2-(5-Chloro-3H-benzo[c][1,2]oxaborol-1-yloxy)-1-phenyl-ethylamine]	≥ 80%
Clc1ccc2c(c1)COB2OC[C@@H]1CCCN1 [Compound 24, (S)-2-(5-Chloro-3H-benzo[c][1,2]oxaborol-1-yloxymethyl)-pyrrolidine]	≥ 80%

These compounds were tested on Alternaria solani (assay: Alternaria solani on tomato plants). Settings: 4-week old tomato plants cv. Roter Gnom, spray, inoculated two days after application.
Type: in vivo
Protocol: 4-week old tomato plants cv. Roter Gnom are sprayed in a spray chamber with the formulated test compound diluted in water. The test plants are inoculated by spraying them with a spore suspension two days after application. The inoculated test plants are incubated at 22/18° C. (day/night) and 95% rh in a greenhouse and the percentage leaf area covered by disease is assessed when an appropriate level of disease appears on untreated check plants (5-7 days after application).

SMILES	pest or weed control at 60 ppm
NCC(OB1OCc2cc(Cl)ccc21)c1ccccc1 (centres unmarked) [Compound 3, 2-(5-Chloro-3H-benzo[c][1,2]oxaborol-1-yloxy)-2-phenyl-ethylamine]	≥ 60%
OB1OCc2cc3ccccc3cc21 [Compound 15, 3H-2-Oxa-1-bora-cyclopenta[b]naphthalen-1-ol]	≥ 60%

What follows are compounds tested on Fusarium culmorum (assay: Fusarium culmorum liquid culture growth inhibition). Settings: photometric, 3-4 days after application, read-out: control on Fusarium culmorum.
Type: cell-based
Protocol: as §2, with “3-4” for “4-5”

SMILES	inhibition of growth at 200 ppm
NCC(OB1OCc2cc(Cl)ccc21)c1ccccc1 (centres unmarked) [Compound 3, 2-(5-Chloro-3H-benzo[c][1,2]oxaborol-1-yloxy)-2-phenyl-ethylamine]	≥ 80%
OB1OCc2ccc(Cl)cc21 [Compound 6, 6-Chloro-3H-benzo[c][1,2]oxaborol-1-ol]	≥ 80%
OB1OCc2ccccc21 [Compound 11, 3H-Benzo[c][1,2]oxaborol-1-ol]	≥ 80%
OB1OCc2cc3ccccc3cc21 [Compound 15, 3H-2-Oxa-1-bora-cyclopenta[b]naphthalen-1-ol]	≥ 80%
N[C@H](COB1OCc2cc(Cl)ccc21)Cc1ccccc1 [Compound 20, (S)-1-Benzyl-2-(5-chloro-3H-benzo[c][1,2]oxaborol-1-yloxy)-ethylamine]	≥ 80%
CC(C)(N)COB1OCc2cc(Cl)ccc21 [Compound 21, 2-(5-Chloro-3H-benzo[c][1,2]oxaborol-1-yloxy)-1,1-dimethyl-ethylamine]	≥ 80%
Clc1ccc2c(c1)COB2Oc1cccc2cccnc12 [Compound 22, 8-(5-Chloro-3H-benzo[c][1,2]oxaborol-1-yloxy)-quinoline]	≥ 80%
N[C@@H](COB1OCc2cc(Cl)ccc21)c1ccccc1 [Compound 23, (R)-2-(5-Chloro-3H-benzo[c][1,2]oxaborol-1-yloxy)-1-phenyl-ethylamine]	≥ 80%
Clc1ccc2c(c1)COB2OC[C@@H]1CCCN1 [Compound 24, (S)-2-(5-Chloro-3H-benzo[c][1,2]oxaborol-1-yloxymethyl)-pyrrolidine]	≥ 80%

Each compound was assayed on Pythium ultimum (assay: Pythium ultimum liquid culture growth inhibition). Settings: Globisporangium ultimum, photometric, 2-3 days after application, read-out: control on Pythium ultimum.
Type: cell-based
Protocol: as §1, with “Mycelia fragments and oospores of a newly grown liquid culture” for “Conidia”, “fungus” for “fungus from cryogenic storage”, “mycelia/spore mixture” for “spores”

SMILES	inhibition of growth at 200 ppm
NCC(OB1OCc2cc(Cl)ccc21)c1ccccc1 (centres unmarked) [Compound 3, 2-(5-Chloro-3H-benzo[c][1,2]oxaborol-1-yloxy)-2-phenyl-ethylamine]	≥ 80%
OB1OCc2ccc(Cl)cc21 [Compound 6, 6-Chloro-3H-benzo[c][1,2]oxaborol-1-ol]	≥ 80%
OB1OCc2ccccc21 [Compound 11, 3H-Benzo[c][1,2]oxaborol-1-ol]	≥ 80%
OB1OCc2cc3ccccc3cc21 [Compound 15, 3H-2-Oxa-1-bora-cyclopenta[b]naphthalen-1-ol]	≥ 80%
N[C@H](COB1OCc2cc(Cl)ccc21)Cc1ccccc1 [Compound 20, (S)-1-Benzyl-2-(5-chloro-3H-benzo[c][1,2]oxaborol-1-yloxy)-ethylamine]	≥ 80%
CC(C)(N)COB1OCc2cc(Cl)ccc21 [Compound 21, 2-(5-Chloro-3H-benzo[c][1,2]oxaborol-1-yloxy)-1,1-dimethyl-ethylamine]	≥ 80%
Clc1ccc2c(c1)COB2Oc1cccc2cccnc12 [Compound 22, 8-(5-Chloro-3H-benzo[c][1,2]oxaborol-1-yloxy)-quinoline]	≥ 80%
N[C@@H](COB1OCc2cc(Cl)ccc21)c1ccccc1 [Compound 23, (R)-2-(5-Chloro-3H-benzo[c][1,2]oxaborol-1-yloxy)-1-phenyl-ethylamine]	≥ 80%
Clc1ccc2c(c1)COB2OC[C@@H]1CCCN1 [Compound 24, (S)-2-(5-Chloro-3H-benzo[c][1,2]oxaborol-1-yloxymethyl)-pyrrolidine]	≥ 80%

What follows are compounds tested on Pythium ultimum (assay: Example B-5: seed treatment against Pythium ultimum on cotton). Settings: Globisporangium ultimum, rate of 200 g/100 kg seeds, infested soil, number of germinated, healthy plants.
Type: in vivo
Protocol: The trial is kept for 1 week in a growth room at 20° C. and darkness. After this period the trial is transferred to a greenhouse where a temperature of 21° C. and a 14 h light period is provided until the trial is finished. The following assessments are made: number of germinated, healthy plants. Each number is determined for 150 seeds per treatment (3 replicates a 50 seeds).

SMILES	pest or weed control at 200 g/100 kg seeds
OB1OCc2ccccc21 [Compound 11, 3H-Benzo[c][1,2]oxaborol-1-ol]	≥ 50%

Each compound was assayed on Glomerella lagenarium (Colletotrichum lagenarium) (assay: Glomerella lagenarium liquid culture growth inhibition). Settings: Colletotrichum orbiculare, photometric, 3-4 days after application, read-out: control on Glomerella lagenarium.
Type: cell-based
Protocol: as §1

SMILES	inhibition of growth at 200 ppm
NCC(OB1OCc2cc(Cl)ccc21)c1ccccc1 (centres unmarked) [Compound 3, 2-(5-Chloro-3H-benzo[c][1,2]oxaborol-1-yloxy)-2-phenyl-ethylamine]	≥ 80%
OB1OCc2ccc(Cl)cc21 [Compound 6, 6-Chloro-3H-benzo[c][1,2]oxaborol-1-ol]	≥ 80%
OB1OCc2ccccc21 [Compound 11, 3H-Benzo[c][1,2]oxaborol-1-ol]	≥ 80%
OB1OCc2cc3ccccc3cc21 [Compound 15, 3H-2-Oxa-1-bora-cyclopenta[b]naphthalen-1-ol]	≥ 80%
OB1OCc2c1ccc1ccccc21 [Compound 16, 1H-2-Oxa-3-bora-cyclopenta[a]naphthalen-3-ol]	≥ 80%
N[C@H](COB1OCc2cc(Cl)ccc21)Cc1ccccc1 [Compound 20, (S)-1-Benzyl-2-(5-chloro-3H-benzo[c][1,2]oxaborol-1-yloxy)-ethylamine]	≥ 80%
CC(C)(N)COB1OCc2cc(Cl)ccc21 [Compound 21, 2-(5-Chloro-3H-benzo[c][1,2]oxaborol-1-yloxy)-1,1-dimethyl-ethylamine]	≥ 80%
Clc1ccc2c(c1)COB2Oc1cccc2cccnc12 [Compound 22, 8-(5-Chloro-3H-benzo[c][1,2]oxaborol-1-yloxy)-quinoline]	≥ 80%
N[C@@H](COB1OCc2cc(Cl)ccc21)c1ccccc1 [Compound 23, (R)-2-(5-Chloro-3H-benzo[c][1,2]oxaborol-1-yloxy)-1-phenyl-ethylamine]	≥ 80%
Clc1ccc2c(c1)COB2OC[C@@H]1CCCN1 [Compound 24, (S)-2-(5-Chloro-3H-benzo[c][1,2]oxaborol-1-yloxymethyl)-pyrrolidine]	≥ 80%
